Read-outs that look alike come from different tables or passages of the source.
Assays:
Ste2p-FT-HT [1] = target: T1, Ste2p-FT-HT (Saccharomyces cerevisiae, UniProt D6VTK4, C252S/C59S); format: binding; conditions: [Bio-DOPA]11-mer 85 μM
Ste2p [2] = conditions: cited from earlier work
Ste2p-FT-HT [3] = target: T1, Ste2p-FT-HT; format: binding; conditions: [3H]α-factor 5 nM; novobiocin 10^−4 M to 10^−11 M; 30 min on ice
[4] = tested on: Saccharomyces cerevisiae LM102 cells expressing Ste2p-FT-HT; test: Growth arrest; format: cell-based; conditions: for halo area in presence of novobiocin: novobiocin 2.2 mg/4.5 ml Noble agar-cell mixture; for growth arrest activity of peptide alone: peptide alone 15 μg/disk, no α-factor; for halo (zone of growth inhibition) area on co-spotting with α-factor: α-factor 0.1 μg/disk plus peptide 15 μg/disk, three replicates
[5] = tested on: Ste2p-FT-HT signalling in LM102 cells (FUS1-lacZ); test: FUS1-lacZ reporter gene assay; format: cell-based, Saccharomyces cerevisiae; conditions: for FUS1-lacZ reporter gene activity of peptide alone: peptide alone (30 μM), absence of α-factor; for increase in FUS1-lacZ reporter gene activity over α-factor alone: α-factor 50 nM plus peptide 30 μM, 90 min, 30°C, mean of three determinations
Ste2p-FT-HT [6] = target: T1, Ste2p-FT-HT; format: binding; conditions: read-out: cross-linking of [Bio-DOPA]13-mer, % of control, novobiocin 5 mM, [Bio-DOPA]13-mer 10 μM
Ste2p [7] = conditions: cited from earlier work; remark: listed apart in the source

T1 sequence (D6VTK4 whole entry C59S/C252S): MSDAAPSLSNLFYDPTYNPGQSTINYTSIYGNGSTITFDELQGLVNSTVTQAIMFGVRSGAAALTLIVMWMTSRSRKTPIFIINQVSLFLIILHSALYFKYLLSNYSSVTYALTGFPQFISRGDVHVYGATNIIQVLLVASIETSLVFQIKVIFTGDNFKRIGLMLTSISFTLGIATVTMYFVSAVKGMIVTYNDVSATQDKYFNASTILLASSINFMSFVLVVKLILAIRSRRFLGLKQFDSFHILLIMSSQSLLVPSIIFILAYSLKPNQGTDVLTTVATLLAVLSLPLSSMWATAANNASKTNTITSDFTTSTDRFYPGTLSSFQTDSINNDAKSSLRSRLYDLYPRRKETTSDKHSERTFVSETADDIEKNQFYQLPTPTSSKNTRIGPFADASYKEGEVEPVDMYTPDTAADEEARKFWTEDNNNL

Compound: CO[C@@H]1[C@@H](OC(N)=O)[C@@H](O)[C@H](Oc2ccc3c(O)c(NC(=O)c4ccc(O)c(CC=C(C)C)c4)c(=O)oc3c2C)OC1(C)C [novobiocin]
- maximal inhibition of [Bio-DOPA]11-mer cross-linking (Ste2p-FT-HT [1]; between 10 and 50 mM novobiocin, Fig. 6): ~ 90%
- remaining activity at 5000 µM (Ste2p-FT-HT [1]; read-out: labeling (cross-linking of [Bio-DOPA]11-mer), % of control level, novobiocin 5 mM, average over 3 replicate blots): 26%
- agonistic activity in growth arrest assays (Ste2p [2]; S. cerevisiae strain supersensitive to α-factor): weak agonistic activity
- competition with [3H]α-factor for binding to Ste2p-FT-HT (Ste2p-FT-HT [3]): did not prevent α-factor binding to the receptor
- intrinsic agonistic activity in growth arrest assay ([4]; novobiocin by itself, up to 2.2 mg/disk): no measurable, intrinsic agonistic activity
- increase of halo area in presence of novobiocin, without paper disk ([4]; α-factor 10 ng spotted directly onto lawn containing novobiocin 2.2 mg/lawn): 45%
- halo area in presence of novobiocin ([4]; α-factor 0.1 μg/disk): 155 ± 24 mm^2
- halo area in presence of novobiocin ([4]; α-factor 0.2 μg/disk): 273 ± 14 mm^2
- FUS1-lacZ response to novobiocin in presence of α-factor ([5]; 25 nM α-factor, repeated three times): dose-dependent increase in activity up to 12.5 μM
- FUS1-lacZ reporter gene activity, novobiocin by itself ([5]; no α-factor, concentrations up to 37.5 μM): failed to increase reporter gene activity
- FUS1-lacZ reporter gene activity, novobiocin by itself, higher amounts ([5]; no α-factor, up to 400 μM, data not shown): failed to stimulate reporter gene activity
- remaining activity at 5000 µM (Ste2p-FT-HT [6]; average over 3 replicate blots): 118%
- remaining activity at 5000 µM (Ste2p-FT-HT [6]; blot in Fig. 5): 136%

Compound: DOPA-HWLQLK(BiotinACA)PGQP [[Bio-DOPA]11-mer, [DOPA^1, K^7 (BiotinACA),desM^12desY^13] α-factor]
- growth arrest activity of peptide alone [4]: no intrinsic biological activity
- halo (zone of growth inhibition) area on co-spotting with α-factor [4]: 309 ± 27 mm^2
- FUS1-lacZ reporter gene activity of peptide alone [5]: no intrinsic biological activity
- increase in FUS1-lacZ reporter gene activity over α-factor alone [5]: approximately 2 fold

Compound: WHWLQLKPGQP [11-mer]
- innate biological activity (Ste2p [2]; wild-type yeast strain): no innate biological activity
- agonist activity in supersensitive mutant (Ste2p [2]; yeast mutant supersensitive to the ligand): very weak agonist
- growth arrest activity of peptide alone [4]: no biological activity
- halo (zone of growth inhibition) area on co-spotting with α-factor [4]: 382 ± 36 mm^2
- FUS1-lacZ reporter gene activity of peptide alone [5]: did not stimulate reporter gene activity over control levels
- increase in FUS1-lacZ reporter gene activity over α-factor alone [5]: 2.5 fold
- competition for binding with α-factor (Ste2p [7]): did not compete for binding with α-factor
- influence on affinity of the receptor for α-factor (Ste2p [7]; wild-type yeast strain): did not influence the affinity of the receptor for the ligand

Compound: [DOPA^1, K^7 (BiotinACA)] α-factor [[Bio-DOPA]13-mer]
- biological activity (Ste2p [2]; binds the orthosteric site of the receptor): retains biological activity

Reference: PMC4331264 (Biochimica et biophysica acta, 2015)
